Measurements as given in paper PMC6934184, “Selective DNA-PKcs inhibition extends the therapeutic index of localized radiotherapy and chemotherapy” (The Journal of Clinical Investigation, 2019).

Molecular target: T1, ABL1 G250E (Homo sapiens, UniProt P00519, G250E)
T1 construct: purchased Thermo Fisher Scientific (Life Technologies) SelectScreen
Experiment: SelectScreen Z'LYTE
Format: biochemical
How it was run: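 SelectScreen broad panel; activity (Z'LYTE, Adapta) plus binding formats. ATP: Km app for CSF1R Z'LYTE; 10 for CAMK1 Adapta. Readout = % per kinase.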

SMILES: CN(C(=O)CN1CCOCC1)c1ccc2sc3c(-c4cccc5c(=O)cc(N6CC7CCC(C6)O7)oc45)cccc3c2c1 [NU5455]
- inhibition at 1 µM: -8.5%
